Measurements from PubChem BioAssay AID1919015 (Molecular Pharmacology Branch, DTP, NCI, 2023).
Several values for one entry are separate records, joined by “and”; a condition that tells them apart may be missing. Identical values can stand only once.

Tested on: OVCAR-5 complex spheroids with HUVEC/MSC, viability, % test/control
Test: Anticancer human tumor OVCAR-5 cell line growth inhibition [AhR];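 note: spheroids exposed to compounds for 7 days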;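 for viability, T/C: 100% = DMSO vehicle control wells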
Conditions: for viability, T/C: stronger effect = lower value
Method in brief: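 Spheroids combined tumor cells with HUVEC endothelial cells and human MSCs as stroma. AhR antagonists were paired with standard or investigational drugs, each dosed in half-log steps down from near clinical Cmax, or from 10 microM where Cmax was unknown.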

[1] = curve of first compound, second compound 0.1 µM
[2] = curve of first compound, second compound 0.316 µM
[3] = curve of first compound, second compound 1 µM
[4] = curve of first compound, second compound 3.16 µM
[5] = curve of first compound, second compound 10 µM
[6] = second compound 0.1 µM, first compound 0.00949 µM
[7] = second compound 0.1 µM, first compound 0.03 µM
[8] = second compound 0.1 µM, first compound 0.0949 µM
[9] = second compound 0.1 µM, first compound 0.3 µM
[10] = second compound 0.316 µM, first compound 0.00949 µM
[11] = second compound 0.316 µM, first compound 0.03 µM
[12] = second compound 0.316 µM, first compound 0.0949 µM
[13] = second compound 0.316 µM, first compound 0.3 µM
[14] = second compound 1 µM, first compound 0.00949 µM
[15] = second compound 1 µM, first compound 0.03 µM
[16] = second compound 1 µM, first compound 0.0949 µM
[17] = second compound 1 µM, first compound 0.3 µM
[18] = second compound 3.16 µM, first compound 0.00949 µM
[19] = second compound 3.16 µM, first compound 0.03 µM
[20] = second compound 3.16 µM, first compound 0.0949 µM
[21] = second compound 3.16 µM, first compound 0.3 µM
[22] = second compound 10 µM, first compound 0.00949 µM
[23] = second compound 10 µM, first compound 0.03 µM
[24] = second compound 10 µM, first compound 0.0949 µM
[25] = second compound 10 µM, first compound 0.3 µM

Compound `O=C(C=Cn1cnc(-c2cc(C(F)(F)F)cc(C(F)(F)F)c2)n1)NNc1cnccn1` + CC(CO)NC(=O)c1cc(-c2ccc(Cl)cc2)nn(-c2cnn(C)c2)c1=O has an IC50 [1] of 1900 nM, an IC50 [2] of 2180 nM and an IC50 [3] of 2680 nM. The IC50 [4] was 2020 nM, the IC50 [5] was 1670 nM and the viability, T/C [6] was 109%. The viability, T/C [7] was 113%, the viability, T/C [8] was 101% and the viability, T/C [9] was 86.7%. The viability, T/C (second compound 0.1 µM, first compound 0.949 µM) was 66.4%, the viability, T/C (second compound 0.1 µM, first compound 3 µM) was 39.6% and the viability, T/C [10] was 110%. The viability, T/C [11] was 110%, the viability, T/C [12] was 104% and the viability, T/C [13] was 86%. It also gave a viability, T/C (second compound 0.316 µM, first compound 0.949 µM) of 64%, a viability, T/C (second compound 0.316 µM, first compound 3 µM) of 44.7% and a viability, T/C [14] of 113%. It also gave a viability, T/C [15] of 114%, a viability, T/C [16] of 111% and a viability, T/C [17] of 90.1%. For the same compound, the viability, T/C (second compound 1 µM, first compound 0.949 µM) was 70.2%, the viability, T/C (second compound 1 µM, first compound 3 µM) was 47.5% and the viability, T/C [18] was 101%. For the same compound, the viability, T/C [19] was 112%, the viability, T/C [20] was 103% and the viability, T/C [21] was 87.5%. For the same compound, the viability, T/C (second compound 3.16 µM, first compound 0.949 µM) was 69.7%, the viability, T/C (second compound 3.16 µM, first compound 3 µM) was 40.1% and the viability, T/C [22] was 97%. For the same compound, the viability, T/C [23] was 98.2%, the viability, T/C [24] was 97.6% and the viability, T/C [25] was 83.3%. It also gave a viability, T/C (second compound 10 µM, first compound 0.949 µM) of 65.8% and a viability, T/C (second compound 10 µM, first compound 3 µM) of 34.2%.
In the case of `CC(C)CC(NC(=O)C(Cc1ccccc1)NC(=O)c1cnccn1)B(O)O` (configuration not stated) + Cc1cncc(-c2nc(NCCc3c[nH]c4ccccc34)c3ncn(C(C)C)c3n2)c1, the IC50 [1] is reported as 58.1 nM, the IC50 [2] is reported as 57.2 nM and the IC50 [3] is reported as 54.6 nM. For the same compound, the IC50 [4] was 41.1 nM, the IC50 [5] was less than 0.949 nM and the viability, T/C (second compound 0.1 µM, first compound 0.000949 µM) was 96.8%. It also gave a viability, T/C (second compound 0.1 µM, first compound 0.003 µM) of 102%, a viability, T/C [6] of 102% and a viability, T/C [7] of 74.7%. The viability, T/C [8] was 32.2%, the viability, T/C [9] was 27.2% and the viability, T/C (second compound 0.316 µM, first compound 0.000949 µM) was 96.3%. For the same compound, the viability, T/C (second compound 0.316 µM, first compound 0.003 µM) was 100%, the viability, T/C [10] was 101% and the viability, T/C [11] was 72.1%. It also gave a viability, T/C [12] of 33.2%, a viability, T/C [13] of 23.6% and a viability, T/C (second compound 1 µM, first compound 0.000949 µM) of 96.7%. The viability, T/C (second compound 1 µM, first compound 0.003 µM) was 95%, the viability, T/C [14] was 96.6% and the viability, T/C [15] was 68.2%. For the same compound, the viability, T/C [16] was 33.6%, the viability, T/C [17] was 25% and the viability, T/C (second compound 3.16 µM, first compound 0.000949 µM) was 82.9%. It also gave a viability, T/C (second compound 3.16 µM, first compound 0.003 µM) of 76.3%, a viability, T/C [18] of 75.9% and a viability, T/C [19] of 59.5%. For the same compound, the viability, T/C [20] was 25.6%, the viability, T/C [21] was 15.4% and the viability, T/C (second compound 10 µM, first compound 0.000949 µM) was 19.6%. The viability, T/C (second compound 10 µM, first compound 0.003 µM) was 24.7%, the viability, T/C [22] was 15% and the viability, T/C [23] was 1.7%. For the same compound, the viability, T/C [24] was 0.78% and the viability, T/C [25] was 0.54%.
Work on `NS(=O)(=O)OCC1CC(n2ccc3c(NC4CCc5ccccc54)ncnc32)CC1O` (configuration not stated) + CC(CO)NC(=O)c1cc(-c2ccc(Cl)cc2)nn(-c2cnn(C)c2)c1=O yielded an IC50 [1] of 196 nM, an IC50 [2] of 159 nM and an IC50 [3] of 169 nM. It also gave an IC50 [4] of 174 nM, an IC50 [5] of 204 nM and a viability, T/C (second compound 0.1 µM, first compound 0.0316 µM) of 92.9%. For the same compound, the viability, T/C (second compound 0.1 µM, first compound 0.1 µM) was 66.1%, the viability, T/C (second compound 0.1 µM, first compound 0.316 µM) was 40.3% and the viability, T/C (second compound 0.1 µM, first compound 1 µM) was 16.1%. It also gave a viability, T/C (second compound 0.1 µM, first compound 3.16 µM) of 13%, a viability, T/C (second compound 0.1 µM, first compound 10 µM) of 11.3% and a viability, T/C (second compound 0.316 µM, first compound 0.0316 µM) of 79.5%. The viability, T/C (second compound 0.316 µM, first compound 0.1 µM) was 58.9%, the viability, T/C (second compound 0.316 µM, first compound 0.316 µM) was 37.1% and the viability, T/C (second compound 0.316 µM, first compound 1 µM) was 14.8%. For the same compound, the viability, T/C (second compound 0.316 µM, first compound 3.16 µM) was 11.2%, the viability, T/C (second compound 0.316 µM, first compound 10 µM) was 11.5% and the viability, T/C (second compound 1 µM, first compound 0.0316 µM) was 85.1%. The viability, T/C (second compound 1 µM, first compound 0.1 µM) was 61%, the viability, T/C (second compound 1 µM, first compound 0.316 µM) was 37.6% and the viability, T/C (second compound 1 µM, first compound 1 µM) was 14.9%. For the same compound, the viability, T/C (second compound 1 µM, first compound 3.16 µM) was 11.5%, the viability, T/C (second compound 1 µM, first compound 10 µM) was 11.6% and the viability, T/C (second compound 3.16 µM, first compound 0.0316 µM) was 72.1%. It also gave a viability, T/C (second compound 3.16 µM, first compound 0.1 µM) of 65.3%, a viability, T/C (second compound 3.16 µM, first compound 0.316 µM) of 33.5% and a viability, T/C (second compound 3.16 µM, first compound 1 µM) of 13.7%. For the same compound, the viability, T/C (second compound 3.16 µM, first compound 3.16 µM) was 11.3%, the viability, T/C (second compound 3.16 µM, first compound 10 µM) was 11.2% and the viability, T/C (second compound 10 µM, first compound 0.0316 µM) was 75.7%. It also gave a viability, T/C (second compound 10 µM, first compound 0.1 µM) of 65.7%, a viability, T/C (second compound 10 µM, first compound 0.316 µM) of 40.7% and a viability, T/C (second compound 10 µM, first compound 1 µM) of 15.7%. It also gave a viability, T/C (second compound 10 µM, first compound 3.16 µM) of 12.6% and a viability, T/C (second compound 10 µM, first compound 10 µM) of 12.6%.
In the case of `Nc1ncn(C2CC(O)C(CO)S2)c(=O)n1` (configuration not stated), the viability, T/C (compound 0.000949 µM) is reported as 103% and 101% and 99.6%, the viability, T/C (compound 0.003 µM) is reported as 96.8% and 106% and 99.3% and the viability, T/C (compound 0.00949 µM) is reported as 102% and 103% and 97.4%. For the same compound, the viability, T/C (compound 0.03 µM) was 99.8% and 99.5% and 105%, the viability, T/C (compound 0.0949 µM) was 91.7% and 90.7% and 99% and the viability, T/C (compound 0.3 µM) was 83.8% and 77.6% and 83.7%. For the same compound, the IC50 (curve of compound) was greater than 300 nM.
